Measured values taken from patent US20230139171A1 (SITA Information Networking Computing UK Limited, priority 2019, published 2023).

Tests used:
Format in all cases: cell-based
[1] = molecular target: T1, human TLR7 (Homo sapiens, UniProt Q9NYK1); experiment: TLR7 inhibition reporter assay (HEK-Blue cells, SEAP reporter, gardiquimod stimulation); details: HEK-Blue cells overexpressing human TLR7, SEAP reporter, gardiquimod 7.5 μM; read-out: TLR7 IC50
T1 construct: host or cells: HEK-Blue cells
T1 sequence (Q9NYK1 27-1049): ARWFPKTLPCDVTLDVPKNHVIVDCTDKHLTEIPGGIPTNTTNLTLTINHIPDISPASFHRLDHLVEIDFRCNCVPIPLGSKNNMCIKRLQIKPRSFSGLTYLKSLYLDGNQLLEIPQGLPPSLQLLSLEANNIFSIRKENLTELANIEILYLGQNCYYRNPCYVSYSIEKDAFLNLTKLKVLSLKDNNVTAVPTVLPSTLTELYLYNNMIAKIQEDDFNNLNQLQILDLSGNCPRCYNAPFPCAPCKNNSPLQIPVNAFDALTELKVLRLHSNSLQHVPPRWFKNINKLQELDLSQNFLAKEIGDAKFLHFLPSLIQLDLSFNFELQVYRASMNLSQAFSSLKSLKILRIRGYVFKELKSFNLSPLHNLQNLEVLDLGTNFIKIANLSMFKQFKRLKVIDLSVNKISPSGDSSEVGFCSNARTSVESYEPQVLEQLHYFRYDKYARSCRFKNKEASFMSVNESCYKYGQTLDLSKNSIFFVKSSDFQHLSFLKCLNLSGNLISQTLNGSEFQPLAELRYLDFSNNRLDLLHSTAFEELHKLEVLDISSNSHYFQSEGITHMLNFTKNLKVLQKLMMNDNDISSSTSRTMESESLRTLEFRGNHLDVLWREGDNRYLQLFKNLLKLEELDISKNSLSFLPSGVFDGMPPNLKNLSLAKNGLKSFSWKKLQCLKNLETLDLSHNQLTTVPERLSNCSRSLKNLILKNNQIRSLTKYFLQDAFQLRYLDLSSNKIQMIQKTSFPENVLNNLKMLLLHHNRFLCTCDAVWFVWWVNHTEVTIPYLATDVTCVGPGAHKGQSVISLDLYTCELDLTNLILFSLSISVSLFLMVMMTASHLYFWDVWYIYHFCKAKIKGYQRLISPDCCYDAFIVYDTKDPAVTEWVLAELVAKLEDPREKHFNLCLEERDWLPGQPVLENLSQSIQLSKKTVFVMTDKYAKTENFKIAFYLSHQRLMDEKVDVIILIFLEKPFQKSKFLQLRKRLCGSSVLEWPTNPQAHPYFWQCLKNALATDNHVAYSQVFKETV
Outline: (§1)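 Compound treatment: 30 min, RT, 0.05 nM–50 μM final. Agonist: TLR7 gardiquimod 7.5 μM; TLR8 R848 15.9 μM; TLR9 ODN2006 5 nM. Incubation 22 h, 37 °C, 5% CO2. Readout SEAP, HEK-Blue Detection.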

[2] = molecular target: T2, human TLR8 (Homo sapiens, UniProt Q9NR97); experiment: TLR8 inhibition reporter assay (HEK-Blue cells, SEAP reporter, R848 stimulation); details: HEK-Blue cells overexpressing human TLR8, SEAP reporter, R848 15.9 μM; read-out: TLR8 IC50
T2 construct: host or cells: HEK-Blue cells
T2 sequence (Q9NR97 27-1041): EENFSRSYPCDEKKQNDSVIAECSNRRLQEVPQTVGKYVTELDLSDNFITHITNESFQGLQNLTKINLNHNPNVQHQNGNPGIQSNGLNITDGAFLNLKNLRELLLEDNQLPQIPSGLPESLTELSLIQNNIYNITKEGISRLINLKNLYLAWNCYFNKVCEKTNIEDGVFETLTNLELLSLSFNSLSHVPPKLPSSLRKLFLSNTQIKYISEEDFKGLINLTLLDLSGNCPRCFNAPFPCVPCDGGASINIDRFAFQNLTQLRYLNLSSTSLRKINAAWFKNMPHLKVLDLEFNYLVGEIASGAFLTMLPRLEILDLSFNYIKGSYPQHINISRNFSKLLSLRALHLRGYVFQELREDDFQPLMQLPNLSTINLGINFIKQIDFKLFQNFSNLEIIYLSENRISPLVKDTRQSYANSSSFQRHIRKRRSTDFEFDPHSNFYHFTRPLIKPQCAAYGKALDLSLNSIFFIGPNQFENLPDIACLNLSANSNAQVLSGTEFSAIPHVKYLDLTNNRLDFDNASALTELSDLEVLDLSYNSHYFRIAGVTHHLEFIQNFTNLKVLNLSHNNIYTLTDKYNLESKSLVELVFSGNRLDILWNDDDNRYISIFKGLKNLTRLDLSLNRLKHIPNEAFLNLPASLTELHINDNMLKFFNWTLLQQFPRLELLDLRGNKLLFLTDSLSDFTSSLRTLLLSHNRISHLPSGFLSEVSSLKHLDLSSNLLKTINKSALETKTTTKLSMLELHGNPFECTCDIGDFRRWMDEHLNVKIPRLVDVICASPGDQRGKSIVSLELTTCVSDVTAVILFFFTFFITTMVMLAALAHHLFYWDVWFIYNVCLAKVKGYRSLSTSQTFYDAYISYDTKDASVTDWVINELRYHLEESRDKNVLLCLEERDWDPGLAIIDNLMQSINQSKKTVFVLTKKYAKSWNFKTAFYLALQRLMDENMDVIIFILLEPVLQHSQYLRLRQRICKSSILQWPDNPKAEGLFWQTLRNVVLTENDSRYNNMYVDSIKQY
Outline: as §1

[3] = molecular target: T3, human TLR9 (Homo sapiens, UniProt Q9NR96); experiment: TLR9 inhibition reporter assay (HEK-Blue cells, SEAP reporter, ODN2006 stimulation); details: HEK-Blue cells overexpressing human TLR9, SEAP reporter, ODN2006 5 nM
T3 construct: host or cells: HEK-Blue cells
T3 sequence (Q9NR96 26-1032): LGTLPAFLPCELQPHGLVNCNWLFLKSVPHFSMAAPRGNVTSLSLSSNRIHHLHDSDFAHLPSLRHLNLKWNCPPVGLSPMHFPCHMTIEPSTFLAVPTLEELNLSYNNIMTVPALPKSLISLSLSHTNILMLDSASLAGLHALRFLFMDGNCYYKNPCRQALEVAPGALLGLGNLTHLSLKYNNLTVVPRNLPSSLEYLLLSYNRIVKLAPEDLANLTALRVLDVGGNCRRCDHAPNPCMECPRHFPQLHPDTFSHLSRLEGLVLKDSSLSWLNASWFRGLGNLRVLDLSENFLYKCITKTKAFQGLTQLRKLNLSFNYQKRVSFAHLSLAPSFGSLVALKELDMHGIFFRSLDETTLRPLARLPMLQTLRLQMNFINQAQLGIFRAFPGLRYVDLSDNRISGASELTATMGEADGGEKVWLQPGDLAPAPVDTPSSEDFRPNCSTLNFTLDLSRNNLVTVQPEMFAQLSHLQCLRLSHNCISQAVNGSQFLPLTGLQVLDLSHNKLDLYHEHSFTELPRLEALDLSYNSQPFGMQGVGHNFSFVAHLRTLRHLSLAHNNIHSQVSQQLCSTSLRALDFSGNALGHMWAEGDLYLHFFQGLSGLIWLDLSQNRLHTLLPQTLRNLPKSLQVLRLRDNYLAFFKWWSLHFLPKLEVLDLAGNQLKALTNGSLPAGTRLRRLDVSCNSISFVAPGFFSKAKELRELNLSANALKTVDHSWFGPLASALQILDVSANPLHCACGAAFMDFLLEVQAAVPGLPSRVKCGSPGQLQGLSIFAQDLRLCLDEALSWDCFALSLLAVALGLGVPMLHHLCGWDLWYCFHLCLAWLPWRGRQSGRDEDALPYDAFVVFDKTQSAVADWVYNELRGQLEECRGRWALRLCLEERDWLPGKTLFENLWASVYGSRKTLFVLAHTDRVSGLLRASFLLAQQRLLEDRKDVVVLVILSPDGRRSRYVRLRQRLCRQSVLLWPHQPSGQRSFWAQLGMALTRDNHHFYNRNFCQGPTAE
Outline: as §1

| Compound | IC50 [1] [nM] | IC50 [2] [nM] | IC50 [3] [nM] |
| --- | --- | --- | --- |
| COc1cc(-c2[nH]c3sc(C4CCN(CC5(C)COC5)CC4)nc3c2C(C)C)cn2ncnc12 [Example 14, 6-isopropyl-5-(8-methoxy-[1,2,4]triazolo[1,5-a]pyridin-6-yl)-2-(1-((3-methyloxetan-3-yl)methyl)piperidin-4-yl)-4H-pyrrolo[3,2-d]thiazole] | 1.92 | 0.94 | 3840 |
| COc1cc(-c2[nH]c3sc(C4CCN(CC(C)(C)O)CC4)nc3c2C(C)C)cn2ncnc12 [Example 15, 1-(4-(6-isopropyl-5-(8-methoxy-[1,2,4]triazolo[1,5-a]pyridin-6-yl)-4H-pyrrolo[3,2-d]thiazol-2-yl)piperidin-1-yl)-2-methylpropan-2-ol] | 4.15 | 3.14 | 7810 |
| COc1cc(-c2[nH]c3sc(C4CCN(CCS(C)(=O)=O)CC4)nc3c2C(C)C)cn2ncnc12 [Example 16, 6-isopropyl-5-(8-methoxy-[1,2,4]triazolo[1,5-a]pyridin-6-yl)-2-(1-(2-(methylsulfonyl)ethyl)piperidin-4-yl)-4H-pyrrolo[3,2-d]thiazole] | 3.09 | 2.74 | 43500 |
| Cc1cc(-c2[nH]c3sc(C4CCN(CC(=O)N(C)C)CC4)nc3c2C(C)C)cn2ncnc12 [Example 17, 2-(4-(6-isopropyl-5-(8-methyl-[1,2,4]triazolo[1,5-a]pyridin-6-yl)-4H-pyrrolo[3,2-d]thiazol-2-yl)piperidin-1-yl)-N,N-dimethylacetamide] | 8.08 | 8.27 | 3430 |
| Cc1cc(-c2[nH]c3sc(C4CCN(CC(C)(C)O)CC4)nc3c2C(C)C)cn2ncnc12 [Example 18, 1-(4-(6-isopropyl-5-(8-methyl-[1,2,4]triazolo[1,5-a]pyridin-6-yl)-4H-pyrrolo[3,2-d]thiazol-2-yl)piperidin-1-yl)-2-methylpropan-2-ol] | 5.69 | 2.57 | 3740 |
| Cc1cc(-c2[nH]c3sc(C4CCN(C(=O)CN(C)C)CC4)nc3c2C(C)C)cn2ncnc12 [Example 19, 2-(dimethylamino)-1-(4-(6-isopropyl-5-(8-methyl-[1,2,4]triazolo[1,5-a]pyridin-6-yl)-4H-pyrrolo[3,2-d]thiazol-2-yl)piperidin-1-yl)ethan-1-one] | 1.4 | 12 | 5940 |
| Cc1cc(-c2[nH]c3sc(C4CCN(C5COC5)CC4)nc3c2C(C)C)cn2ncnc12 [Example 20, 6-isopropyl-5-(8-methyl-[1,2,4]triazolo[1,5-a]pyridin-6-yl)-2-(1-(oxetan-3-yl)piperidin-4-yl)-4H-pyrrolo[3,2-d]thiazole] | 3.69 | 8.06 | 16100 |
| Cc1cc(-c2[nH]c3sc(C4CCN(C(C)C)CC4)nc3c2C(C)C)cn2ncnc12 [Example 21, 6-isopropyl-2-(1-isopropylpiperidin-4-yl)-5-(8-methyl-[1,2,4]triazolo[1,5-a]pyridin-6-yl)-4H-pyrrolo[3,2-d]thiazole] | 6.89 | 39 | > 50000 |
| Cc1cc(-c2[nH]c3sc(C4CCN(C5CCOCC5)CC4)nc3c2C(C)C)cn2ncnc12 [Example 22, 6-isopropyl-5-(8-methyl-[1,2,4]triazolo[1,5-a]pyridin-6-yl)-2-(1-(tetrahydro-2H-pyran-4-yl)piperidin-4-yl)-4H-pyrrolo[3,2-d]thiazole] | 1.23 | 0.9 | 4850 |
| Cc1cc(-c2[nH]c3sc(C4CCN(CC5(C)COC5)CC4)nc3c2C(C)C)cn2ncnc12 [Example 23, 6-isopropyl-5-(8-methyl-[1,2,4]triazolo[1,5-a]pyridin-6-yl)-2-(1-((3-methyloxetan-3-yl)methyl)piperidin-4-yl)-4H-pyrrolo[3,2-d]thiazole] | 1.27 | 1.01 | 4770 |
| Cc1cc(-c2[nH]c3sc(C4CCN(CC(=O)N(C)C)CC4)nc3c2C(C)C)cc(C)n1 [Example 24, 2-(4-(5-(2,6-dimethylpyridin-4-yl)-6-isopropyl-4H-pyrrolo[3,2-d]thiazol-2-yl)piperidin-1-yl)-N,N-dimethylacetamide] | 43.4 | 12.5 | 793 |
| Cc1cc(-c2[nH]c3sc(C4CCN(C(C)C)CC4)nc3c2C(C)C)cc(C)n1 [Example 25, 5-(2,6-dimethylpyridin-4-yl)-6-isopropyl-2-(1-isopropylpiperidin-4-yl)-4H-pyrrolo[3,2-d]thiazole] | 25.6 | 10.3 | 447 |
| Cc1cc(-c2[nH]c3sc(C4CCN(C5CCOCC5)CC4)nc3c2C(C)C)cc(C)n1 [Example 26, 5-(2,6-dimethylpyridin-4-yl)-6-isopropyl-2-(1-(tetrahydro-2H-pyran-4-yl)piperidin-4-yl)-4H-pyrrolo[3,2-d]thiazole] | 442 | 413 | 7210 |
